# Reference: patent US20240182526A1, “COMPOSITIONS AND METHODS FOR MODULTING INFLAMMATORY AND DEGENERATIVE DISORDER” (University of Southern California, priority 2021, published 2024)
# Entries after “also recorded” stand apart in the source; their conditions may differ.
# Columns and labels:
# [1] = molecular target: T1, gp130 pY814 (Sus scrofa, UniProt A0A4X1SIN4); test: Western blot of gp130 pY814 in OSM-stimulated pig articular chondrocytes; type: cell-based; settings: with OSM, 4 and 24 hours
# T1 construct: endogenous in cells; host or cells: pig articular chondrocytes (Yucatan minipig)
# Experimental: (§1) For standard western blot, treated and non-treated cells were lysed in RIPA Lysis and Extraction Buffer (Pierce, Rockford, IL) containing protease inhibitors (Pierce) followed by sonication with a 15-second pulse at a power output of 2 using the VirSonic 100 (SP Industries Company, Warminster, PA). Protein concentrations were determined by BCA protein assay (Pierce). Proteins were resolved with SDS-PAGE utilizing 4-15% Mini-PROTEAN TGX Precast Gels and transferred to Trans-Blot Turbo Transfer Packs with a 0.2-μm pore-size nitrocellulose membrane. The SDS-PAGE running buffer, 4-15% Mini-PROTEAN TGX Precast Gels, Trans-Blot Turbo Transfer Packs with a 0.2-μm pore-size nitrocellulose membrane was purchased from Biorad (Hercules, CA). Nitrocellulose membranes were blocked in 5% nonfat milk in 0.05% (v/v) Tween 20 (PBST) (Corning, Manassas, VA). Membranes were then incubated with primary antibodies p-gp130 Y814 (Evseenko lab, AbClonal), p-AKT (cat #4060, Cell Signaling), p-ERK 1/2 (cat #9106, Cell Signaling), p-Y416-SRC (cat #1246F, Novus Biologicals), p-gp130 (cat #1453R, Bioss USA) and p-NFκBp65 (cat #8242, Cell Signaling), and/or YAP1 (cat #4912, Cell Signaling). Histone H3 (cat #9515, Cell Signaling) was used as loading control. […] Quantification of blots was performed using ImageJ 1.44 followed by Prism9 for analysis.
# [2] = system: MAPK (ERK 1/2); test: Western blot of MAPK (pERK 1/2) in OSM-stimulated pig articular chondrocytes; type: cell-based
# Experimental: as §1
# [3] = system: pro-inflammatory signaling in osteoarthritic chondrocytes; test: Western blot of pro-inflammatory signaling proteins in osteoarthritic chondrocytes; type: cell-based, human; settings: 4 and 24 hours
# Experimental: as §1
# [4] = system: YAP1; test: Western blot of YAP1 in LIF-treated pig articular chondrocytes; type: cell-based; settings: 4 and 24 hours
# Experimental: as §1, with “VA).” for “VA). Membranes were then incubated with primary antibodies p-gp130 Y814 (Evseenko lab, AbClonal), p-AKT (cat #4060, Cell Signaling), p-ERK 1/2 (cat #9106, Cell Signaling), p-Y416-SRC (cat #1246F, Novus Biologicals), p-gp130 (cat #1453R, Bioss USA) and p-NFκBp65 (cat #8242, Cell Signaling), and/or YAP1 (cat #4912, Cell Signaling). Histone H3 (cat #9515, Cell Signaling) was used as loading control.”
# Experiments were performed to determine whether R805 is inclined to shift the signaling outputs downstream of gp130 promoting differential regulation similar to genetic ablation of Y814. As a readout, protein levels of phosphorylated SRC, MAPK (ERK 1/2) and NF-κB were measured in response to OSM while STAT3 and YAP1 levels were evaluated in response to LIF.
# [5] = system: rat medial meniscal tear model; test: Rat medial meniscal tear model of osteoarthritis; type: in vivo; settings: 6 weeks post-surgery
# Experimental: Immunohistochemistry. Histological staining for was performed on wild type (WT) mice, F814 mice and all mice that underwent destabilization of the medial meniscus (DMM). Six weeks after surgery, mice were sacrificed and joints were fixed in 10% formalin, decalcified in 10% EDTA and embedded in paraffin. For rat model, 6 weeks after partial medial meniscectomy (PMM), rats were sacrificed and joints were fixed in 10% formalin, decalcified in 10% EDTA and embedded in paraffin. A total of three 8 μm thick sections were made at a 200 μm interval by coronal sectioning. For canine model, 4 and 16 weeks after medial meniscal release (MMR), dogs were sacrificed and joints were fixed in 10% formalin, decalcified in 10% EDTA and embedded in paraffin. No animals were excluded from analysis. A microtome (Leica) was used to cut 5-μm sections for joints. H&E staining was performed to assess morphology. Safranin O/Fast Green staining, immunohistochemistry for proteolytic enzymes and Osteoarthritis Research Society International (OARSI) scoring was performed as described (41, 42). For OARSI scoring, observers performing the analysis were blinded as whether the slides were from treated or control animals. The stained samples were visually observed using LSCM (Zeiss LSM710, Carl Zeiss, Germany).
# Rat model of osteoarthritis. All experiments were conducted ethically. […]
# T1 sequence (A0A4X1SIN4 23-917): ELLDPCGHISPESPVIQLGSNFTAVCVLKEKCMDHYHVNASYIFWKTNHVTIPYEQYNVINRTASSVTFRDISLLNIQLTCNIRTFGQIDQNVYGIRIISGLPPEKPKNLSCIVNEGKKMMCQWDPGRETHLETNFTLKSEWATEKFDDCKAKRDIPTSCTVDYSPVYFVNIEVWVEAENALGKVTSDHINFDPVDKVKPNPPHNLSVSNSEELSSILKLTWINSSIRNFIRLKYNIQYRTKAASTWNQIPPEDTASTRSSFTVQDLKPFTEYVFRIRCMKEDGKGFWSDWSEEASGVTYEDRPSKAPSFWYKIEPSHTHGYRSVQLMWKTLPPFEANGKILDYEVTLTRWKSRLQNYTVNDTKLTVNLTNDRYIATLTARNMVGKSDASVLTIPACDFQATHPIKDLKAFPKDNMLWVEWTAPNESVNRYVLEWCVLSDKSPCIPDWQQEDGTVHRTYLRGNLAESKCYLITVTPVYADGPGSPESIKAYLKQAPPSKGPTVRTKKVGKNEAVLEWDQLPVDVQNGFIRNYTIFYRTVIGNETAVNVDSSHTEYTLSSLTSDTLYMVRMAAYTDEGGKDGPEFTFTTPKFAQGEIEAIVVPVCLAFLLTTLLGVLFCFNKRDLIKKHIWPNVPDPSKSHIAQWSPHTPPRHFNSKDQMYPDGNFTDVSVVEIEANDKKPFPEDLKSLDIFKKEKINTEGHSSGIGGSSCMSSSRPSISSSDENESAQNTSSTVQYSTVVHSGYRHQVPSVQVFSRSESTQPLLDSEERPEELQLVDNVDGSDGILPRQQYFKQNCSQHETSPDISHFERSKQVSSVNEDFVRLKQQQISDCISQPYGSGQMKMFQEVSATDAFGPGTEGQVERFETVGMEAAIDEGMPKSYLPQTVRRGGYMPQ
compound,measurement,setting,value
Cc1ccc(-c2csc(NC(=O)c3ccccn3)n2)cc1 [Peptide R805],OSM-stimulated activation of gp130 Y814 (protein expression of gp130 pY814),[1],prevents Y814 activation in response to IL-6 cytokines; also recorded: selectively inhibited OSM-stimulated activation of Y814
same,OSM-stimulated activation of gp130 Y814 (protein expression of gp130 pY814),[1]; listed as CX-011,potent inhibitor of OSM-stimulated activation of gp130 Y814
same,MAPK (pERK 1/2) activation induced by OSM,[2],markedly suppressed
same,pro-inflammatory signaling in diseased tissue,[3],markedly suppressed; also recorded: prevents pro-inflammatory signaling in diseased tissue
same,YAP1 downstream of LIF,[4],minimal inhibitory effect
same,cartilage thickness and stiffness (indentation mapping),[5]; femoral condyle,maintained thickness and reduced stiffness in rat cartilage
same,cartilage degeneration (Safranin O histology),[5]; weekly intra-articular injection,dramatically reduces the appearance of OA in rat and canine models; also recorded: prominent protective effects; also recorded: reduces cartilage degeneration
